Blank lines part the entries; values can stand above or below the molecule they belong to.
Key:
[1] = target: Cholinesterase (Homo sapiens, UniProt P06276); assay: Inhibition of BuChE (unknown origin)
[2] = target: Acetylcholinesterase (Homo sapiens, UniProt P22303); assay: Inhibition of AChE (unknown origin)
[3] = Inhibition of NADPH oxidase in Homo sapiens (human) HUVEC cells; assay type: cell-based
[4] = target: Glycogen synthase kinase-3 beta (Homo sapiens, UniProt P49841); assay: Inhibition of Homo sapiens (human) recombinant GSK3beta after 30 min by Kinase-Glo assay
Chain of Glycogen synthase kinase-3 beta (P49841 whole entry): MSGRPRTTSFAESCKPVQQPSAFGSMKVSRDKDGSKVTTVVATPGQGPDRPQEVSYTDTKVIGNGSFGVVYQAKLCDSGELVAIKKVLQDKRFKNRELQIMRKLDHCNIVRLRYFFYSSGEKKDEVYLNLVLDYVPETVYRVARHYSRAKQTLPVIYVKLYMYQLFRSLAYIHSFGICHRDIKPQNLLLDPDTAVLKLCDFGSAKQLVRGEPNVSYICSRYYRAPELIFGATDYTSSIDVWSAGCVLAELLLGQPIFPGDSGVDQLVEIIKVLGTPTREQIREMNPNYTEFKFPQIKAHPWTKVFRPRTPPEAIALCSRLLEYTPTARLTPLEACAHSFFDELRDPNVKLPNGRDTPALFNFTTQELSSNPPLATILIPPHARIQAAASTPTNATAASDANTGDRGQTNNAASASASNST

[5] = target: Beta-secretase 1 (Homo sapiens, UniProt P56817); assay: Inhibition of BACE1 (unknown origin)
Chain of Beta-secretase 1 (P56817 whole entry): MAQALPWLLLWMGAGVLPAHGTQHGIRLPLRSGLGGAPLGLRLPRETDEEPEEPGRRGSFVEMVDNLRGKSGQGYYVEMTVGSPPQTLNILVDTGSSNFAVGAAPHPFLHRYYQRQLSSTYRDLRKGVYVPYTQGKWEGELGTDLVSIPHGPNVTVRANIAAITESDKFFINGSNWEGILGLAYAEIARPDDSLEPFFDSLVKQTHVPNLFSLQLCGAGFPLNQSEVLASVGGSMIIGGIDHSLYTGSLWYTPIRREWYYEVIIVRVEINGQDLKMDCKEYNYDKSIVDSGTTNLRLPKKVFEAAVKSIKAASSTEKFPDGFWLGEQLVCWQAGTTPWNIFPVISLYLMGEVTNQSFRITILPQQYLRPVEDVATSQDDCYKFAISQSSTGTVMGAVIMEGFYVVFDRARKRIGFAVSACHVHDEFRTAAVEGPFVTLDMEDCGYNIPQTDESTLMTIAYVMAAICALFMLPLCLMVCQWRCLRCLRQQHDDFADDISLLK

Chain of Cholinesterase (P06276 whole entry): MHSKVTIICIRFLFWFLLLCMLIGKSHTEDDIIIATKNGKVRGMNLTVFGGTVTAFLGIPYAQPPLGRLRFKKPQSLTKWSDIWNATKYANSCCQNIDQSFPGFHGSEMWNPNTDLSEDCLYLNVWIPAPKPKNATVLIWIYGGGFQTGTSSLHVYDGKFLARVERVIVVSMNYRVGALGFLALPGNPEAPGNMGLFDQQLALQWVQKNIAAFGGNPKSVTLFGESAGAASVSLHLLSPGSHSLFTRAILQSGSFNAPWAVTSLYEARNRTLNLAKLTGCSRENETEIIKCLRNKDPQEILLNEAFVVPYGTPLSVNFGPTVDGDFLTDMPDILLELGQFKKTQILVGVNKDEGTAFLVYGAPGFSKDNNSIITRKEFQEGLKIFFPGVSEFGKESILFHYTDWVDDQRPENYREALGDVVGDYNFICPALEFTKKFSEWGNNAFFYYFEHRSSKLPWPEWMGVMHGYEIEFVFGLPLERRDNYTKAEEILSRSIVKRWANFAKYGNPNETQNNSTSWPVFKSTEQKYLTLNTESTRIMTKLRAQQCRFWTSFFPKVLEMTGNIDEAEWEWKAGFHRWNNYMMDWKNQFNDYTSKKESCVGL
Chain of Acetylcholinesterase (P22303 whole entry): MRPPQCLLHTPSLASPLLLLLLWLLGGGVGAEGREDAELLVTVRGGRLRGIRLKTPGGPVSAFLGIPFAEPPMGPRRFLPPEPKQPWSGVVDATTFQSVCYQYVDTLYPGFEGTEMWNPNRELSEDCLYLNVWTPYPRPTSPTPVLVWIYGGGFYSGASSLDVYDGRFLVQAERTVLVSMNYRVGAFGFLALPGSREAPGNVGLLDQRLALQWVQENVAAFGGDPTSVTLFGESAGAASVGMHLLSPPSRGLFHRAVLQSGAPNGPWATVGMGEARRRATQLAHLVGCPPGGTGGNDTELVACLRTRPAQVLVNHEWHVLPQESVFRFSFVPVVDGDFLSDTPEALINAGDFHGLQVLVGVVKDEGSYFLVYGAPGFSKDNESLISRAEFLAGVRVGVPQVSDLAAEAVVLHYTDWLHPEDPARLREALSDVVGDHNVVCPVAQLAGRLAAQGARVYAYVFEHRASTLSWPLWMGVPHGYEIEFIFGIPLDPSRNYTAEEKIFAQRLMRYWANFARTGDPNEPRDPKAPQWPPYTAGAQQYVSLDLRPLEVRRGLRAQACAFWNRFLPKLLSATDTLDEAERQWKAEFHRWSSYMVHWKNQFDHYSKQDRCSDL

Structure (SMILES): CC(C)=CCC/C(C)=C/Cc1cc(-c2cc(=O)c3c(O)cc(O)cc3o2)c(O)cc1O
- IC50 [1]: 16.2 µM
- IC50 [2]: 16.2 µM
- Ki [2]: 3.1 µM

Structure (SMILES): COc1cc(O)c(-c2cc(=O)c3c(O)cc(O)cc3o2)cc1C/C=C(\C)CCC=C(C)C
- IC50 [1]: 11 µM
- Ki [1]: 1.74 µM
- IC50 [2]: 11 µM
- Ki [2]: 3.1 µM

Structure (SMILES): COc1cc2occ(-c3ccc(OC4CCN(Cc5ccccc5)CC4)cc3)c(=O)c2cc1OC
- IC50 [2]: 0.093 µM

Structure (SMILES): COc1cc2occ(-c3ccc(N4CCCC4)cc3)c(=O)c2cc1OC
- IC50 [2]: 1.63 µM

- IC50 [3]: 7.9 µM
Structure (SMILES): COc1cc([C@H]2Oc3cc(O)cc(O)c3C[C@H]2O)ccc1O [3'-O-METHYL EPICATECHIN]

- IC50 [3]: 12 µM
Structure (SMILES): O=C1c2c(O)cc(O)cc2O[C@H](c2ccc(O)c(O)c2)[C@H]1O [(+)-TAXIFOLIN]

- IC50 [3]: > 100 µM
Structure (SMILES): Oc1cc(O)c2c(c1)O[C@H](c1ccc(O)c(O)c1)[C@H](O)C2 [(-)-EPICATECHIN]

Structure (SMILES): O=c1cc(-c2ccc(O)cc2)oc2cc(O)cc(O)c12 [APIGENIN]
- IC50 [4]: 1.9 µM
- IC50 [2]: 0.012 µM

Structure (SMILES): CC(C)=CC1Oc2cc(O)ccc2-c2oc3c4c(cc(O)c3c(=O)c21)OC(C)(C)C=C4 (configuration not stated) [CYCLOMORUSIN]
- IC50 [1]: 1.7 µM
- Ki [2]: 3.1 µM

- IC50 [3]: 7.6 µM
Structure (SMILES): COc1ccc(-c2cc(=O)c3c(O)cc(O)cc3o2)cc1O [DIOSMETIN]

Structure (SMILES): Oc1cc(O)c2c(c1)O[C@H](c1cc(O)c(O)c(O)c1)[C@H](O)C2 [EPIGALLOCATECHIN]
- IC50 [3]: 8 µM

Structure (SMILES): O=c1c(O)c(-c2ccc(O)c(O)c2)oc2cc(O)ccc12 [FISETIN]
- IC50 [2]: 0.012 µM

Structure (SMILES): O=c1c(O)c(-c2ccccc2)oc2cc(O)cc(O)c12 [GALANGIN]
- IC50 [2]: 0.012 µM

- IC50 [4]: 26.9 µM
Structure (SMILES): COc1ccc([C@@H]2CC(=O)c3c(O)cc(O)cc3O2)cc1O [HESPERETIN]

- IC50 [4]: 100 µM
Structure (SMILES): COc1ccc([C@@H]2CC(=O)c3c(O)cc(O[C@@H]4O[C@H](CO[C@@H]5O[C@@H](C)[C@H](O)[C@@H](O)[C@H]5O)[C@@H](O)[C@H](O)[C@H]4O)cc3O2)cc1O [HESPERIDIN]

Structure (SMILES): OCCc1ccc(O)c(O)c1 [HYDROXYTYROSOL]
- IC50 [3]: 7.5 µM

Structure (SMILES): COc1cc(-c2oc3cc(O)cc(O)c3c(=O)c2O)ccc1O [ISORHAMNETIN]
- IC50 [3]: 2.8 µM

Structure (SMILES): O=c1c(OC2O[C@H](CO)[C@H](O)[C@H](O)[C@H]2O)c(-c2ccc(O)cc2)oc2cc(O)cc(O)c12 (stereo partly drawn) [KAEMPFEROL 3-O-D-GALACTOSIDE]
- IC50 [2]: 0.012 µM

- IC50 [3]: 10 µM
- IC50 [5]: 14.7 µM
Structure (SMILES): O=c1c(O)c(-c2ccc(O)cc2)oc2cc(O)cc(O)c12 [KAEMPFEROL]

Structure (SMILES): CC(C)=CCc1c(-c2ccc(O)cc2O)oc2c(CC=C(C)C)c(O)cc(O)c2c1=O [KUWANON C]
- IC50 [1]: 1.7 µM
- Ki [2]: 3.1 µM

Structure (SMILES): CC(C)=CCC/C(C)=C/Cc1cc(C2CC(=O)c3c(O)cc(O)cc3O2)c(O)cc1O (configuration not stated) [KUWANON E]
- IC50 [1]: 1.7 µM
- Ki [2]: 3.1 µM

Structure (SMILES): COc1cc(O)c(C2CC(=O)c3c(O)cc(O)cc3O2)cc1C/C=C(\C)CCC=C(C)C (configuration not stated) [KUWANONU]
- IC50 [1]: 1.7 µM
- Ki [2]: 3.1 µM

Structure (SMILES): O=c1cc(-c2ccc(O)c(O)c2)oc2cc(O)cc(O)c12 [LUTEOLIN]
- IC50 [4]: 1.5 µM

- IC50 [5]: 21.7 µM
Structure (SMILES): O=c1c(O)c(-c2ccc(O)cc2O)oc2cc(O)cc(O)c12 [MORIN]

Structure (SMILES): CC(C)(O)CCc1c(-c2ccc(O)cc2O)oc2c3c(cc(O)c2c1=O)OC(C)(C)C=C3 [MORUSINOL]
- IC50 [1]: 1.7 µM
- Ki [2]: 3.1 µM

Structure (SMILES): CC(C)=CCc1c(-c2ccc(O)cc2O)oc2c3c(cc(O)c2c1=O)OC(C)(C)C=C3 [MORUSIN]
- IC50 [1]: 1.7 µM
- Ki [2]: 3.1 µM

Structure (SMILES): O=c1c(O)c(-c2cc(O)c(O)c(O)c2)oc2cc(O)cc(O)c12 [MYRICETIN]
- IC50 [5]: 2.8 µM
- IC50 [2]: 0.012 µM

Structure (SMILES): O=C1C[C@@H](c2ccc(O)cc2)Oc2cc(O)cc(O)c21 [NARINGENIN]
- IC50 [4]: 45.7 µM

- IC50 [4]: 100 µM
Structure (SMILES): C[C@@H]1O[C@@H](O[C@H]2[C@H](Oc3cc(O)c4c(c3)O[C@H](c3ccc(O)cc3)CC4=O)O[C@H](CO)[C@@H](O)[C@@H]2O)[C@H](O)[C@H](O)[C@H]1O [NARINGIN]

Structure (SMILES): CC1(C)C=Cc2c(cc(O)c3c(=O)c4c(oc23)-c2ccc(O)cc2OC(C(C)(C)O)C4)O1 (configuration not stated) [NEOCYCLOMORUSIN]
- IC50 [1]: 1.7 µM
- Ki [2]: 3.1 µM

- IC50 [3]: 3.8 µM
Structure (SMILES): Oc1cc(O)c2c(c1)O[C@H](c1ccc(O)c(O)c1)[C@H](O)[C@H]2c1c(O)cc(O)c2c1O[C@H](c1ccc(O)c(O)c1)[C@H](O)C2 [PROCYANIDIN B2]

Structure (SMILES): O=c1c(O)c(-c2ccc(O)c(O)c2)oc2cc(O)cc(O)c12 [QUERCETIN]
- IC50 [3]: > 100 µM
- IC50 [4]: 2 µM
- IC50 [1]: 421 µM
- IC50 [2]: 354 µM

Structure (SMILES): C[C@@H]1O[C@@H](OC[C@H]2O[C@@H](Oc3c(-c4ccc(O)c(O)c4)oc4cc(O)cc(O)c4c3=O)[C@H](O)[C@@H](O)[C@@H]2O)[C@H](O)[C@H](O)[C@H]1O [RUTIN]
- IC50 [2]: 0.012 µM

- IC50 [3]: 7.5 µM
Structure (SMILES): OCCc1ccc(O)cc1 [TYROSOL]
